# Test results: article PMC9233054 (Pharmaceutical development and technology, 2022)
# Tests used:
# [1] = assay type: physicochemical; conditions: 1:1 cholecalciferol:HPBCD; calculated with theoretic S0
# [2] = HPBCD 0 mM (control, D.I. H2O), S0; ref Hamilton 2015; cited from earlier work
# physchem = conditions: water, thermodynamic from solid
structure (smiles),measurement,setting,value
C=C1CC[C@H](O)C/C1=C/C=C1\CCC[C@]2(C)[C@@H]([C@H](C)CCCC(C)C)CC[C@@H]12 [cholecalciferol],stability constant K1:1,[1],71900 mM⁻¹
same,Saturated concentration of vitamin D3 in HPBCD solution (S),[2],3.38×10^−8 (S0) ([Hamilton 2015]) mM
same,solubility at 3 days,physchem,1.6 µM
same,Solubility increase ratio (S/S0),"Phase solubility study; HPBCD 0 mM (control, D.I. H2O)",1
same,Solubility increase ratio (S/S0),Phase solubility study; HPBCD 10 mM,5.92×10^5
same,Solubility increase ratio (S/S0),Phase solubility study; HPBCD 40 mM,1.42×10^7
same,Solubility increase ratio (S/S0),Phase solubility study; HPBCD 50 mM,2.29×10^7
same,Solubility increase ratio (S/S0),Phase solubility study; HPBCD 70 mM,4.56×10^7
same,Solubility increase ratio (S/S0),Phase solubility study; HPBCD 100 mM,9.30×10^7
same,Solubility increase ratio (S/S0),Phase solubility study; HPBCD 120 mM,1.11×10^8
same,Solubility increase ratio (S/S0),Phase solubility study; HPBCD 150 mM,1.90×10^8
same,Solubility increase ratio (S/S0),Phase solubility study; HPBCD 170 mM,2.31×10^8
same,Solubility increase ratio (S/S0),Phase solubility study; HPBCD 200 mM,3.29×10^8
same,solubility increase ratio,Phase solubility study; different HPBCD molarities (Table 1),enhanced by five or more orders of magnitude
